Entries after “also recorded” stand apart in the source; their conditions may differ. Where two headings read alike, the source gives them in different places. Positions of bridges follow the written chain, without caps; N, C: chain ends. Non-standard residues stand in square brackets, D forms with d. Residues, ends and D or L forms follow the SMILES beside them.

In data set [1] the test system is H1N1pr8 (A/PR8/8/34/Mount Sinai). Format: cell-based, Influenza A virus.
In data set [2] the test system is H1N1pdm09 (A/Netherlands/602/2009). Format: cell-based, Influenza A virus.
The subject of data set [3] is H5N1 virus carrying H5 HA of A/duck/Hunan/795/2002 in the H1N1pr8 genetic background. The following applies: 16 h.
Data set [4] addresses H1 ectodomain of A/California/04/2009 (H1N1) (Influenza A virus, UniProt C3W5S1). Format: binding, Influenza A virus A/California/04/2009 (H1N1).
The next data set has as its system H3 ectodomain. In kind it is binding, Influenza A virus A/Fujian/411/2002 (H3N2). The following applies: for Kd: read-out: Kd1.
The test system of data set [5] is H3N1 virus carrying H3 HA of A/Bilthoven/1761/76 (H3N2) in the H1N1pr8 background. Format: cell-based, Influenza A virus.
The target of a further data set is H1stem. Format: binding, Influenza A virus A/Kentucky/UR06-0258/2007 (H1N1). The conditions noted are these: read-out: Kd1.
Another data set concerns the target H1 HA (Influenza A virus, UniProt C3W5S1). Format: binding, Influenza A virus A/California/04/2009 (H1N1).
Data set [6] concerns the target T1, H1 ectodomain (Influenza A virus, UniProt C3W5S1). In words: biochemical. In kind it is binding, Influenza A virus A/California/04/2009 (H1N1).
Data set [7] relates to H1N1pdm09 (A/Netherlands/602/2009). The following applies: for IC50: 16 h.
For data set [8], the target named is T1, H1 ectodomain. The experiment in a line: biochemical. In kind it is binding, Influenza A virus A/California/04/2009 (H1N1). The following applies: read-out: Kd1.
Another data set can be described thus: in vitro. The conditions noted are these: HeLa R19 cells and MDCKI cells.
Data set [9] has as its target full-length H1 of A/California/04/2009 (H1N1) (Influenza A virus, UniProt C3W5S1). In kind it is cell-based, Influenza A virus A/California/04/2009 (H1N1). The conditions noted are these: pH 5.
The subject of data set [10] is H5N1 virus carrying H5 HA of A/duck/Hunan/795/2002 in the H1N1pr8 genetic background. Format: cell-based, Influenza A virus.
A further data set relates to H1N1pdm09. Also noted: species or system Influenza A virus.

Turning to `CC(C)[C@@H]1NC(=O)[C@H](Cc2c[nH]c3ccccc23)NC(=O)[C@H](CCCNC(=N)N)NC(=O)[C@H](Cc2ccc(O)cc2)NC(=O)CSC[C@@H](C(=O)NCC(N)=O)NC(=O)[C@H](C(C)C)NC(=O)[C@H](C(C)C)NC(=O)[C@H](Cc2ccccc2)NC(=O)[C@H](Cc2ccc(O)cc2)NC(=O)[C@@H]2CCCN2C(=O)[C@H](CCC(=O)O)NC(=O)[C@H](CO)NC(=O)[C@H](Cc2ccccc2)NC(=O)[C@H](Cc2ccccc2)NC(=O)[C@H](CO)NC(=O)[C@H]([C@@H](C)O)NC(=O)[C@H](Cc2c[nH]c3ccccc23)NC1=O` [L4] ({CH2CO}-YRWVWTSFFSEPYFVVCG-NH2; thioether N-17), the “Inhibition of infection (infected cells relative to untreated control)” value in data set [1] is recorded as “strongly inhibited infection”; in data set [2] it was “strongly inhibited infection”; in data set [5], “fell short of inhibiting”. The IC50 was 0.234 ± 0.066 µM in data set [3] and 0.104 ± 0.0103 µM in data set [7]. Moreover, the “Binding region in the HA stem (HDX-MS)” value in data set [4] was “aa 369–387”. Besides, the “Peptide binding by SPR (in words)” value with H3 ectodomain was “no binding was observed”. Also, the Kd was more than 0.05 µM on H3 ectodomain, 0.0026 ± 0.0001 µM on H1stem, not above 0.001 µM at H1 ectodomain [6] and 0.0208 ± 0.0014 µM at H1 ectodomain [8]. Moreover, the ΔTm (°C), purified peptide on H1 HA was 3.4 °C. The “Inhibition of infection at a single concentration” value in data set [7] is listed as “strong inhibition of infection”. This molecule showed a CC50 at 72 h in “in vitro” of more than 5 µM.
Take `CC[C@H](C)[C@@H]1NC(=O)[C@H](CCCCN)NC(=O)[C@H](CO)NC(=O)[C@H](Cc2c[nH]c3ccccc23)NC(=O)[C@H](Cc2ccc(O)cc2)NC(=O)[C@H]([C@@H](C)CC)NC(=O)[C@H](CCCCN)NC(=O)[C@H](CC(C)C)NC(=O)[C@@H](Cc2ccc(O)cc2)NC(=O)CSC[C@@H](C(=O)NCC(N)=O)NC(=O)[C@H](Cc2c[nH]c3ccccc23)NC(=O)[C@H](CCC(=O)O)NC(=O)[C@H](CO)NC(=O)[C@H](C(C)C)NC(=O)[C@H](CC(C)C)NC(=O)CNC(=O)[C@H](Cc2c[nH]cn2)NC1=O` [S3] ({CH2CO}-[dY]LKIYWSKIHGLVSEWCG-NH2; thioether N-17): the figures for the “Inhibition of infection (infected cells relative to untreated control)” value in data set [1], in [2] and in data set [5] were “strongly inhibited infection”, “strongly inhibited infection” and “fell short of inhibiting”, respectively. The IC50 was determined as 0.0175 ± 0.0017 µM in [3] and 0.0475 ± 0.0071 µM in data set [7]. In addition, the “Binding region in the HA stem (HDX-MS)” value in [4] is “aa 369–387”. The “Peptide binding by SPR (in words)” value in the data set on H3 ectodomain was “no binding was observed”. Also, the Kd on H3 ectodomain is more than 0.05 µM; at H1stem, 0.0372 ± 0.0188 µM; on H1 ectodomain [6], not above 0.001 µM; at H1 ectodomain [8] it was 0.0168 ± 0.0006 µM. Besides, at H1 HA, the “ΔTm (°C), crude peptide” value was determined as 3.8 °C. Also, on H1 HA, the “ΔTm (°C), purified peptide” value was determined as 4.2 °C. Also, the “Inhibition of infection at a single concentration” value in [7] was “strong inhibition of infection”. The molecule further showed a CC50 at 72 h in the data set “in vitro” of more than 5 µM.
Take `CC(C)C[C@@H]1NC(=O)[C@H](C(C)C)NC(=O)[C@@H](Cc2ccc(O)cc2)NC(=O)CSC[C@@H](C(=O)NCC(N)=O)NC(=O)[C@H](C(C)C)NC(=O)[C@H](Cc2c[nH]c3ccccc23)NC(=O)[C@H](Cc2c[nH]cn2)NC(=O)[C@H]([C@@H](C)O)NC(=O)[C@H](C)NC(=O)[C@H](CC(C)C)NC(=O)[C@H]([C@@H](C)O)NC(=O)CNC(=O)[C@H](Cc2c[nH]cn2)NC(=O)[C@H](CC(=O)O)NC(=O)[C@H](Cc2c[nH]c3ccccc23)NC(=O)[C@H](CCCNC(=N)N)NC(=O)[C@H](Cc2ccccc2)NC1=O` [S5] ({CH2CO}-[dY]VLFRWDHGTLATHWVCG-NH2; thioether N-17): the “Inhibition of infection (infected cells relative to untreated control)” value was “strongly inhibited infection” in [1], “strongly inhibited infection” in data set [2], “fell short of inhibiting” in data set [5] and “cross-neutralization was observed” in data set [10]. Also, the “Syncytia formation (cell-cell fusion)” value in data set [9] is listed as “greatly reduced; also recorded: inhibits fusion between H1 expressing cells”. In addition, in [4], the “Binding region in the HA stem (HDX-MS)” value is listed as “aa 369–387”. Further, in the data set on H3 ectodomain, the “Peptide binding by SPR (in words)” value is on record as “no binding was observed”. The Kd at H3 ectodomain was more than 0.05 µM; at H1stem, 0.0113 ± 0.0025 µM; at H1 ectodomain [6], not above 0.001 µM; on H1 ectodomain [8], 0.0086 ± 0.0011 µM. The “ΔTm (°C), crude peptide” value on H1 HA stood at 4.8 °C. The “ΔTm (°C), purified peptide” value at H1 HA was determined as 7.8 °C. Further, the “Inhibition of infection at a single concentration” value in data set [7] is listed as “strong inhibition of infection”. For the same molecule, the “Neutralizing activity in the presence of serum proteins” value in data set [7] is “unaffected by the addition of serum proteins”. This molecule also displayed a CC50 at 72 h in “in vitro” of more than 5 µM. In addition, the “Interference of the peptide itself with hemagglutination” value in the data set on H1N1pdm09 is listed as “does not interfere with hemagglutination”. In addition, the “Loss of hemagglutination after pH 5 incubation” value in the data set on H1N1pdm09 (pH 5) is “prevented by S5”.

Values taken from PMC9486808 (ACS Chemical Biology, 2022).
